Assay results reported in patent US20100074897A1, “Methods and Compositions related to HIF-1 alpha” (University of Utah Research Foundation, priority 2006, published 2010).

Experiments:
Sp1 [1] = target: T1, Sp1 (Oryctolagus cuniculus, UniProt G1SL61); assay: anti-Sp1 immunoprecipitation of in vitro translated products; type: binding, rabbit; settings: for Sp1 binding: translated in rabbit reticulocyte lysate; for competition with PAS1B for Sp1 binding: in vitro translated PAS1B, peptide 10, 100 and 1000 pmol
T1 construct: from tissue; host or cells: rabbit reticulocyte lysate (in vitro translation system)
T1 sequence (G1SL61 1-788): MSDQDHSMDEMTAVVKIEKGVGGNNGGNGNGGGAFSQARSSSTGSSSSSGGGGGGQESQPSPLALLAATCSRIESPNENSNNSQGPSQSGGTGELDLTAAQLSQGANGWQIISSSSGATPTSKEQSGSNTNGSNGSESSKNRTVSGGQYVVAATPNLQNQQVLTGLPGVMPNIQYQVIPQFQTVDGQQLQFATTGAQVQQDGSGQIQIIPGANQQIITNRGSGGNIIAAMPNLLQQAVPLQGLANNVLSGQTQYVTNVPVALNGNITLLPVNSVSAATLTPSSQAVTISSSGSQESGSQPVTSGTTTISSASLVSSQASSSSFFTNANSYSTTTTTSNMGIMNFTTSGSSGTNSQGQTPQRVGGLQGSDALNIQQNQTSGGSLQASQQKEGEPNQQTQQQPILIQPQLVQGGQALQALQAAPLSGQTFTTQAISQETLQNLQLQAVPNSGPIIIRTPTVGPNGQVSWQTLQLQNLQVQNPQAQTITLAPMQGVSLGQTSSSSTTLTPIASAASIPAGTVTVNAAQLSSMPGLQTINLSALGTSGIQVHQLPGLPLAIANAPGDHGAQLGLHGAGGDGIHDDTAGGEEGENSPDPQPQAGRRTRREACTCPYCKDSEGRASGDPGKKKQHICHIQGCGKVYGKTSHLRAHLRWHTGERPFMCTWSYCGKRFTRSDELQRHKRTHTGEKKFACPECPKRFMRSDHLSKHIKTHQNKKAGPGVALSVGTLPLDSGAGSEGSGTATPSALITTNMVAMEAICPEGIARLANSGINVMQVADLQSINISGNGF
Method: (§1) Previously, it was shown that Myc displacement is mediated by the N-terminal HIF-1α (1-329), which competes with Myc for Sp1 binding in the MSH2 promoter (Koshiji et al, 2005). […] […] […] Of note, removal of part of the PAS-B from the C terminus (codon 299-329) destroyed Sp1 binding.
(§2) Immunoprecipitations and Western blot was performed essentially as described previously (Huang et al., 1998; Koshiji et al., 2005). In vitro translation and immunoprecipitations are described as before (Gu et al., 2001; Koshiji et al., 2005). […]

Sp1 [2] = assay: anti-Sp1 immunoprecipitation followed by immunoblotting in HeLa cells; type: cell-based; settings: for Sp1 binding: expressed ectopically in HeLa cells
Method: (§3) Immunoprecipitations and Western blot was performed essentially as described previously (Huang et al., 1998; Koshiji et al., 2005). In vitro translation and immunoprecipitations are described as before (Gu et al., 2001; Koshiji et al., 2005). The wheat germ extract system was purchased from Promega. λ protein phosphatase (New England Biolabs) and resveratrol (Sigma) with indicated concentrations were added to the in vitro translated products before immunoprecipitations.

NBS1 [3] = assay: NBS1 mRNA levels by real-time PCR in HCT116 cells; type: cell-based, human
Method: HCT116 TP53^+/+, HCT116 TP53^−/− cells (Koshiji et al., 2004), and U-2 OS were grown in McCoy's 5A medium (Invitrogen), and HeLa cells in DMEM. For hypoxic treatment, cells were incubated in a hypoxic chamber (Innova CO-48, New Brunswick Scientific) maintaining 1% O2 and 5% CO2. Recombinant adenovirus generation and infection were as previously described (Koshiji et al., 2004).
Total RNA extraction, reverse transcription, and quantitative PCR were performed essentially as described previously (Koshiji et al., 2005). Taqman Gene Expression Assay kits for NBS1, MRE11A, RAD50, MSH2, and ACTB were purchased from Applied Biosystems. All experiments were repeated three times in triplicates, and representative results were presented as means±standard errors.

Sp1 [4] = assay: anti-Sp1 immunoprecipitation of in vitro translated products; type: binding, rabbit; settings: for Sp1 binding: produced in wheat germ extract (modification-deficient)
Method: as §1, §2

U-2 OS cells = assay: immunofluorescent staining of γ-H2AX foci (DNA DSBs); type: cell-based
Method: To ascertain the functional relevance of NBS1 repression by hypoxia, the extent of DNA damage was assessed by immunofluorescent staining of γ-H2AX foci, a most sensitive method for quantifying DNA DSBs (Rogakou et al, 1998, 1999). […] Furthermore, results also show strikingly colocalized foci of γ-H2AX and 53BP1, the latter of which is known to interact with various DNA repair proteins including γ-H2AX in response to DSBs (Schultz et al, 2000). Thus, hypoxic cells experience DNA DSBs, presumably resulting from the NBS1 repression.
Immunofluorescence staining was performed essentially as described previously (Rogakou et al, 1999) with mouse anti-γ-H2AX antibody (Upstate) and rabbit anti-53BP1 (Novus Biologicals). Secondary antibodies were anti-mouse Alexa-546 and anti-rabbit Alexa-488 (Molecular Probes). Samples were mounted in antifade media, and were examined by fluorescent and laser-scanning confocal microscopy with a Nikon PCM 2000.

recombinant PKD1 = target: T2, recombinant PKD1 (Homo sapiens, UniProt Q15139); assay: in vitro kinase assay; type: biochemical
T2 construct: purchased Upstate Biotechnology
T2 sequence (Q15139 1-912): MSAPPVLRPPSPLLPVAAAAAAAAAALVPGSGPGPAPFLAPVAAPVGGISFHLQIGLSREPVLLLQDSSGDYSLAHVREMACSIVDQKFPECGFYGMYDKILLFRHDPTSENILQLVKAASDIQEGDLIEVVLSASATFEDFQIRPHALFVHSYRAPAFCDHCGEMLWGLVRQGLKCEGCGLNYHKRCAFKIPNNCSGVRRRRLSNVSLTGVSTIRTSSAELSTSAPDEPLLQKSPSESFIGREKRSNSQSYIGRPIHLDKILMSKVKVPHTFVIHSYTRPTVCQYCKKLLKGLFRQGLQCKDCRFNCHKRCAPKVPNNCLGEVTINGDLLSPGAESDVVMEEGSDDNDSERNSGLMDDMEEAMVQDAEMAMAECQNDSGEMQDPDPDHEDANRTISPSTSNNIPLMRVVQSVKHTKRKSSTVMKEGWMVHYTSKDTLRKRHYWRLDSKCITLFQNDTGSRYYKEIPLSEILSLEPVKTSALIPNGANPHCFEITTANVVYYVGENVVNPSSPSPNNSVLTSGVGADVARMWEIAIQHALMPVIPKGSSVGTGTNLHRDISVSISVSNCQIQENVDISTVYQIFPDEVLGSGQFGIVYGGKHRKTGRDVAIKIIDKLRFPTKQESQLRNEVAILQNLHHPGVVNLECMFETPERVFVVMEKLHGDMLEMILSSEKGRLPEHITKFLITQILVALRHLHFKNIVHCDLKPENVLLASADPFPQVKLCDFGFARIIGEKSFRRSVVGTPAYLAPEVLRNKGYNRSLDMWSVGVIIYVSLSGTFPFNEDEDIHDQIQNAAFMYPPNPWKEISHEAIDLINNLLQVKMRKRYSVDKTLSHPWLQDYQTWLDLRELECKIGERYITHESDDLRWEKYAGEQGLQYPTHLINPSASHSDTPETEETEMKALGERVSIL
Method: The procedure for the in vitro kinase assay was modified from a previous report (Storz et al, 2003). Briefly, recombinant PKD1 (Upstate Biotechnology) was used as the source of enzyme in 20 μl of kinase buffer (50 mM Tris/HCl, pH 7.4, 10 mM MgCl2, 2 mM dithiothreitol). The kinase reaction was carried out for 30 min at room temperature after addition of 10 μl of kinase substrate mixture (150 μM substrate peptide, 50 μM ATP, 10 μCi of [γ-^32P]ATP in kinase buffer). A PKD1-specific substrate (Santa Cruz Biotechnology) was employed as a positive control. […] The reactions were terminated by adding 100 μl of 0.75% H3PO4, and 30 μl of the mixed supernatant was spotted to P-81 phosphocellulose paper (Whatman) in triplicates. Papers were washed thoroughly three times with 0.75% phosphoric acid, once with acetone, dried, and radioactivity incorporated into the synthetic peptide was determined in a scintillation counter. Endogenous PKD1 was immunoprecipitated with an anti-PKD1 antibody (SC-935; Santa Cruz) from 786-O cells lysed in a buffer containing 137 mM NaCl, 20 mM Tris (pH 7.5), 1 mM EGTA, 1 mM EDTA, 10% (v/v) glycerol, 1% (v/v) Nonidet P-40, 1 mM vanadate, and protease inhibitor cocktail (Roche). The immune complexes were washed three times with TBS (50 mM Tris/HCl, pH 7.4, 150 mM NaCl) and subjected to in vitro kinase assays.

NBS1 [5] = assay: NBS1 protein levels by immunoblot in U-2 OS cells expressing PAS-B variants; type: cell-based; settings: forced expression in U-2 OS cells
Method: as §3
U-2 OS cells were transfected with the Nucleofector system (Amaxa). Briefly, 1×10^6 cells were suspended in 100 μl pre-warmed Nucleofector Solution Kit V containing 2 μg plasmids. After electroporation the cells were transferred immediately into pre-warmed complete McCoy's 5A medium and seeded in 6-well plates. Cells were harvested 48 h after transfection.

CDC25A = CDC25A and PGK1 mRNA by real-time RT-PCR in siRNA-transfected HCT116 cells; type: cell-based, human; settings: siRNA 24 h then hypoxia 16 h
Method: Real-Time RT-PCR. Real-time RT-PCR was performed essentially as described previously (Koshiji et al. 2005). Primer and probe (Applied Biosystems) sequences were as follows: CDC25A, forward 5′-[…]-3′ (SEQ ID NO: 25), reverse 5′-[…]-3′ (SEQ ID NO: 26), probe 5′-FAM-[…]-MGB-3′ (SEQ ID NO: 27). PGK-1 (FAM-MGB probe) and ACTB (VIC-MGB probe) were detected with endogenous control reagents from Applied Biosystems. β-actin primers and probe were included into each reaction for normalization. All the experiments were repeated three times in triplicate, and representative results were presented in mean±standard error.
(§4) RNA Interference. Transfection with siRNA duplexes and siRNA sequence information were described previously (Koshiji et al. 2005). CHK1 siRNA was described previously (Zhao et al. 2002). Luciferase siRNA was used as negative control.

HIF-2α = assay: Western blot after siRNA transfection of HCT116 cells; type: cell-based, human
Method: Western Blot. Western blot analysis was carried out as described previously.
as §4

[6] = target: synthetic peptide including HIF-2α residues 314-331

## HIF-2α: full-length HIF-2α, a close member of the HIF-α family
Sp1 [1]
  Sp1 binding: neither full-length HIF-2α nor PAS2B exhibited Sp1-binding activity
Sp1 [2]
  Sp1 binding: no Sp1 binding was detected
NBS1 [3]; adenovirus infection 16 h
  NBS1 repression: no inhibition

## PAS1B T327P: PAS1B with Thr-327 replaced by the HIF-2α residue proline
Sp1 [4]
  Sp1 binding: regained binding
Sp1 [1]
  competition with PAS1B for Sp1 binding: neither PAS2B nor the PAS1B T327P mutant was able to compete
  Sp1 binding: lost Sp1 binding

## PAS1B T322V: PAS1B with T322V mutation
Sp1 [1]
  Sp1 binding: maintained PAS1B activity

## CC(=O)N(O)CCCCCNC(=O)CCC(=O)N(O)CCCCCNC(=O)CCC(=O)N(O)CCCCCN [Desferrioxamine, reference compound]
U-2 OS cells; U-2 OS cells treated with desferrioxamine, versus hypoxia
  intensified γ-H2AX foci: much greater increase
U-2 OS cells; U-2 OS cells, desferrioxamine conditions for 72 h
  γ-H2AX foci per cell, Mean: 40.62 foci per cell

## PAS2B: HIF-2α PAS-B (codons 195-331)
Sp1 [4]
  Sp1 binding: regained binding
Sp1 [1]
  competition with PAS1B for Sp1 binding: neither PAS2B nor the PAS1B T327P mutant was able to compete
  Sp1 binding: neither full-length HIF-2α nor PAS2B exhibited Sp1-binding activity
Sp1 [2]
  Sp1 binding: no Sp1 binding was detected

## Ac-YGRKKRRQRRRGGGVWLETQGTVIYNPRN L-NH2 [HIF-2α peptide]
Recombinant PKD1; 150 μM substrate peptide, 30 min, room temperature
  phosphorylation of peptide substrate by recombinant PKD1: robustly phosphorylated

## PAS2B T324V: PAS2B with Thr-324 mutated to valine
U-2 OS cells; U-2 OS cells transiently expressing PAS-B variants
  γ-H2AX foci colocalized with 53BP1: significantly increased
NBS1 [5]
  NBS1 protein levels: gained its ability to inhibit NBS1 protein levels
Sp1 [1]
  Sp1 binding: established binding

## PAS1B T322E: PAS1B mutant mimicking phosphorylation at Thr-322 with glutamic acid substitution
NBS1 [5]
  NBS1 protein levels: failed to do so
Sp1 [1]
  Sp1 binding: lost Sp1 binding

## Oc1ccc(C=Cc2cc(O)cc(O)c2)cc1 [resveratrol, reference compound]
Sp1 [4]; 100 μM during synthesis of PAS2B in rabbit reticulocyte lysate
  Sp1 binding of PAS2B: established Sp1 binding
Recombinant PKD1; recombinant PKD1 preincubated with resveratrol (100 μM) for 10 min
  PKD1-mediated phosphorylation of consensus substrate peptide and HIF-2α peptide: abrogated
Sp1 [2]; HeLa cells expressing PAS2B treated with 5 nM of resveratrol
  PAS2B-Sp1 immunoprecipitated complexes: yielded PAS2B-Sp1 immunoprecipitated complexes

## 5′-AACAGCATCTTTGATAGCAGT-3″ [EPAS1 siRNA]
CDC25A
  effect on hypoxic CDC25A down-regulation and PGK1 up-regulation: no obvious effects
HIF-2α
  HIF-2α levels: reduced specifically
NBS1 [3]; siRNA, hypoxia 1% O2 16 h
  effect on NBS1 and MSH2 downregulation and PGK1 upregulation in hypoxic cells: no obvious effects

B1: endogenous PKD1 immunoprecipitated from 786-O cells (protein)
chain: T2 sequence (Q15139 1-912)
[6]
  in vitro kinase assay with immunoprecipitated endogenous PKD1 and synthetic peptides: endogenous PKD1 immunoprecipitated from 786-O cells specifically phosphorylated HIF-2α at Thr-324
